Holding throughout (assay): DTP human tumour cell line panel, 48 h
Test [1] has as its system UACC-257 melanoma.
Test [2] has as its system HCC-2998 colon.
The test system of test [3] is MALME-3M melanoma.
The test system of test [4] is KM12 colon.
In test [5] the test system is SF-295 CNS.
Test [6] concerns OVCAR-4 ovarian.
For test [7], the system named is NCI-H23 lung.
Test [8] has as its system NCI-H522 lung.
Test [9] deals with DU-145 prostate.
The test system of test [10] is BT-549 breast.

Molecules are shown by their SMILES. Where “and” joins values, the source holds several entries; their conditions need not be identical. Identical values can stand only once.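 Tested at 5 concentrations; 48 h exposure; 96-well plates; endpoints linearly interpolated, else capped at highest concentration. The concentration for 50% growth inhibition is given as GI50. TGI denotes the concentration required for complete inhibition of growth.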 Some results are limits rather than exact numbers.

By TGI is commonly meant the concentration giving total growth inhibition. For the compound `c1ccc(C2OC3(CCC[C@H]4C[C@H]43)O[C@H]2c2ccccc2)cc1` (stereo not given in full), the TGI in test [1] is 77.7 µM; in test [2], more than 100 µM; in [3], 88 µM; in [4], more than 100 µM; in test [5], more than 100 µM; in [6], more than 100 µM. Besides, the results for the TGI in test [7] and in [8] were more than 100 µM and 67.1 µM, respectively.

With `O=C1N2Cc3c4ccc5c3CN3C(=O)N6Cc7c(ccc(c7CN1C6(c1ccccc1)C23c1ccccc1)OCCOCCNCCOCCO4)OCCOCCNCCOCCO5` (stereo not given), the TGI in test [1] is 69 µM; in test [2], more than 100 µM; in [3], 59.6 µM; in [4], more than 100 µM; in test [5], more than 100 µM; in test [6], more than 100 µM. The TGI in test [7] and in [8] was more than 100 µM each time.

The GI50 is the concentration that inhibits growth by half. As for `O=C1CC(c2cccc(F)c2)Nc2cc3c(cc21)OCO3` (stereo not given), the GI50 in test [1] is less than 0.01 µM; in test [2] it was less than 0.01 µM; in test [5], less than 0.01 µM; in test [9], less than 0.01 µM; in test [6], more than 100 µM. In addition, the TGI is more than 100 µM in test [1]; less than 0.01 µM in test [2]; more than 100 µM in test [5]; more than 100 µM in test [9]; more than 100 µM in [6]; 0.0602 µM in test [8].

With `O=C(O)[C@H](NS(=O)(=O)c1ccc(F)cc1)c1ccccc1`, the TGI in test [1], in [2], in test [3], in test [5], in test [6] and in test [7] was more than 100 µM throughout. In [8], the TGI is more than 100 µM.

Consider `COC(=O)c1ccc(CN2C(=O)C(Cl)=C(Nc3cccc(Cl)c3C)C2=O)cc1`, for which the GI50 in test [1] was 45.6 µM; in test [2], 32.5 µM; in test [3] it was 2.03 µM; in test [4], 4.03 µM; in test [5] it was 35.4 µM; in [9] it was 29.1 µM. Moreover, the GI50 in [6] was 26.5 µM; in test [7], 10.3 µM; in test [8] it was 3.51 µM. The TGI in test [1] was more than 100 µM; in test [2], 67.5 µM; in test [3], 9.82 µM; in test [4] it was more than 100 µM; in test [5] it was more than 100 µM; in test [9], more than 100 µM. The TGI in [6] was more than 100 µM; in [7], more than 100 µM; in [8], 20.8 µM.

For `CN(C)CCNC(=O)c1cccc2cc3c(Cl)cccc3nc12`, the TGI amounted to 3.99 µM in [1]; 3.66 µM in [2]; 2.1 µM in test [3]; 7.28 µM in test [4]; 8.15 µM in test [6]; 3.23 µM in test [7]. Further, the total growth inhibition concentration (TGI) in test [8] was more than 100 µM.

In the case of `CCOC(=O)C(=O)CC1=Nc2ccccc2SC(c2cccc(C)c2)C1` (stereo not given), the TGI in test [1] is 33.2 µM; in test [2] it was 31.3 µM; in [3], 31 µM; in test [4], 30.9 µM; in test [6], 32 µM; in test [7] it was 32 µM. The compound also came in with a TGI in test [8] of 32.8 µM.

`CC1/C(=N\O)CC(c2ccccc2)N(C)C1c1ccccc1` (stereo not given): the TGI in test [1], in test [2], in test [3], in test [4], in test [5] and in [6] was more than 100 µM throughout. In addition, the TGI in test [7] and in test [8] was more than 100 µM throughout.

In the case of `CCCCCCCCCCCCCCCCCCn1cc[n+](C)c1`, the GI50 was 1.53 µM in test [1]; 0.303 µM and 0.192 µM in test [2]; 0.275 µM in test [4]; 0.801 µM and 0.87 µM in test [9]; 0.645 µM and 0.518 µM in test [6]; 1.17 µM in [10]. Also, the TGI is 3.91 µM in test [1]; 1.26 µM and 0.913 µM in test [2]; 0.879 µM in [4]; 2.06 µM and 2.1 µM in test [9]; 2.71 µM in [10].

`O=C(CC1OC(O)C(Cl)=C1Cl)c1cccnc1` (stereo not given): the TGI in [1], in test [2], in [3], in [4], in test [5] and in test [6] was more than 100 µM each time. Moreover, the TGI in test [7] and in test [8] was more than 100 µM throughout.

In the case of `CN(C)C(=N/O)/C(=N\O)N(C)C`, the TGI in [1], in [2], in test [3], in test [4], in test [5] and in [6] was more than 100 µM in each case. Besides, the TGI in [7] and in test [8] was more than 100 µM in each case.

Consider `O=C1C=CC=C/C1=C1/SC(c2ccccc2)=C(O)N1c1ccccc1`, for which the TGI in test [1], in test [2], in test [3], in test [4], in [5] and in test [6] was more than 100 µM in each case. The TGI in [7] and in [8] was more than 100 µM each time.

Turning to `COc1ccc(-c2nc(-c3ccc(C)cc3)cn3ccnc23)cc1`, the GI50 in test [1] was 9.54 µM; in test [2] it was 11.8 µM; in [4], 3.25 µM; in [5], 3.69 µM; in test [9], 6.11 µM; in test [10] it was 26.4 µM. Besides, the GI50 in test [7] was more than 50 µM. The TGI in test [1] was 25.8 µM; in [2] it was more than 50 µM; in [4], more than 50 µM; in test [5] it was more than 50 µM; in test [9], more than 50 µM; in test [10], more than 50 µM. In test [7], this compound registered a TGI of more than 50 µM.

For `CC(N)(Cc1c[nH]c2cccc(F)c12)C(=O)O` (stereo not given), the GI50 in test [1], in [2], in test [3], in test [4], in test [5] and in [9] was more than 1000 µM in each case. In addition, the GI50 in test [6], in [7] and in test [8] was more than 1000 µM in each case. Moreover, the TGI in test [1], in test [2], in test [3], in [4], in [5] and in [9] was more than 1000 µM each time. For the same compound, the total growth inhibition concentration (TGI) in test [6], in test [7] and in [8] was more than 1000 µM in each case.

Regarding `C[CH2][Ge]([CH2]C)([CH2]C)[O]C(=O)C(OC(C)=O)c1ccccc1` (stereo not given), the GI50 in [1], in [2], in test [3], in test [4], in [5] and in test [6] was more than 100 µM in each case. The GI50 in test [7] and in test [8] was more than 100 µM throughout. The TGI in test [1], in [2], in test [3], in [4], in test [5] and in test [6] was more than 100 µM throughout. The total growth inhibition concentration (TGI) in test [7] and in test [8] was more than 100 µM throughout.

`ClC/C=C/COC1CCCCO1` (stereo not given): the TGI in [1], in [2], in [3], in test [4], in test [5] and in test [6] was more than 100 µM in each case. Moreover, the values for the TGI in test [7] and in [8] were more than 100 µM and 8.85 µM, respectively.

`c1ccc2c3c([nH]c2c1)[C@H]1C2CCCCN2CN1CC3` (stereo not given in full): the TGI in [1], in test [2], in test [3], in [5], in test [6] and in test [7] was more than 100 µM throughout. The same compound had a TGI in [8] of more than 100 µM.

Regarding `O=S(=O)(NNc1ccccc1)c1ccccc1`, the TGI is more than 100 µM in test [1]; more than 100 µM in [2]; 18.1 µM in [4]; 25.4 µM in [5]; 34.3 µM in [9]; 31.5 µM in test [6]. Further, the figures for the TGI in [10], in [7] and in test [8] were 44.2 µM, more than 100 µM and 31.1 µM, respectively.

`Cc1cccc(C)c1NC(=O)C1=NC(=S)NC(c2ccccc2)C1c1nc2ccccc2s1` (stereo not given): the TGI in [1], in [2], in test [3], in test [4], in [5] and in test [6] was more than 100 µM each time. In addition, the TGI in [7] and in test [8] was more than 100 µM throughout.

`CC1=C(SCCC(=O)OC(C[Se]C2=C(C)C(=O)c3ccccc3C2=O)C(=O)NCCCCCC(=O)OCc2ccccc2)C(=O)c2ccccc2C1=O` (stereo not given): the GI50 was 3.46 µM in test [1]; 6.52 µM in [2]; 2.07 µM in [3]; 1.4 µM in test [4]; 2.49 µM in test [5]; 12.3 µM in test [6]. In addition, the GI50 is 3.81 µM in [10], 2.76 µM in test [7] and 3.96 µM in test [8]. For the same compound, the TGI was found to be 10.1 µM in test [1]; 18.5 µM in test [2]; 6.96 µM in [3]; 4.07 µM in test [4]; 8.7 µM in test [5]; 25.1 µM in test [6]. The TGI was 12.9 µM in test [10], 7.84 µM in test [7] and 15 µM in [8].

Turning to `O=c1[nH]c2ccccc2nc1/C=C(\O)c1ccccc1O`, the TGI in [1], in test [2], in test [3], in test [4], in [5] and in [6] was more than 100 µM in each case. The TGI in test [7] and in test [8] was more than 100 µM throughout.

Regarding `C[N+](C)(C)CC(=O)N/N=C(/C(=O)Nc1ccc(Br)cc1)C1C(=O)NC(=O)NC1=O`, the TGI in test [1], in test [2], in test [3], in test [4], in test [5] and in test [6] was more than 100 µM each time. Also, the TGI in test [7] and in test [8] was more than 100 µM each time.

For the compound `COc1ccc2c(c1)[nH]c(=O)c1c3cccc(F)c3cn21`, the GI50 in test [1] is more than 92.9 µM; in test [2] it was 0.143 µM; in test [4], 0.0436 µM; in test [5], 0.0408 µM; in [9], 0.0696 µM; in test [6], 0.126 µM. For the same compound, the GI50 in test [10] is 21.2 µM; in test [7], 0.21 µM; in [8], 0.0756 µM. Further, the TGI in [1] is more than 100 µM; in [2] it was 0.822 µM; in test [4], more than 100 µM; in test [9] it was more than 100 µM; in test [6], 28.8 µM; in test [10], more than 100 µM. Further, the results for the TGI in test [7] and in [8] were more than 52.3 µM and more than 35.5 µM, respectively.

`CCOC(=O)Oc1cc2c(c(OC)c1OC)-c1ccc(OC)c(=O)cc1C(NC(C)=O)CC2` (stereo not given): the TGI is more than 100 µM in test [1]; 0.683 µM in test [2]; more than 100 µM in test [3]; 1.68 µM in [4]; 3.09 µM in [5]; more than 100 µM in test [6]. Also, the TGI in test [10] was more than 100 µM; in test [7] it was 8.82 µM; in [8] it was 0.0271 µM.

Consider `Cc1csc2[n+]1-c1ccccc1N(C(=O)Nc1ccccc1)C(C)C2` (stereo not given), for which the GI50 was more than 100 µM in test [1]; more than 100 µM in [4]; more than 100 µM in [5]; more than 100 µM in [10]; 35.8 µM in test [7]; 61.9 µM in test [8]. Moreover, the TGI in [1], in test [4], in test [5], in [10], in [7] and in test [8] was more than 100 µM in each case.

As to `CCCCCCCCCCCCCC[N+](C)(C)CCCCCCCCCCCCCC`, the GI50 in test [1] was 2.49 µM; in [2], 2.26 µM; in test [5] it was 7.72 µM; in [9] it was 3.42 µM; in test [10], 2.38 µM; in test [7], 2.12 µM. For the same compound, the GI50 in [8] is 1.93 µM. In addition, the TGI worked out at 8.61 µM in test [1]; 5.28 µM in test [2]; 37.7 µM in test [5]; 12.5 µM in test [9]; 5.47 µM in test [10]; 6.13 µM in [7]. Also, in test [8], the TGI turned out to be 5.17 µM.

(Values after PubChem BioAssay (NCI).)
